Measurements: US11839659B2, “Proteolysis-targeting chimeric molecules (PROTACs) that induce degradation of indoleamine 2,3-dioxygenase (IDO) protein” (Northwestern University, priority 2020, dated 2023)
“Also recorded” adds a separate entry of the source. Peptide text beside a SMILES is read from it. * marks the point of attachment. Cbz = O=C(OCc1ccccc1)*

Key:
Assay type in all cases: cell-based
IDO1 [1] = target: T1, IDO1 (Homo sapiens, UniProt P14902); assay: Western blot: effect of competitors and pathway inhibitors on IDO-PROTAC induced IDO1 degradation; conditions: co-treatment with IDO-PROTAC, U87 cells where stated
T1 construct: IDO1 protein was induced in U87 cells with IFNg (50 ng/ml) for 24 hours followed by treatment with IDO-PROTAC; endogenous in cells; host or cells: U87 parental cells; GBM43 cells (IFNg-induced)

IDO1 [2] = target: T1, IDO1; assay: Western blot of IFNg-induced IDO1 protein levels in GBM43 cells after IDO-PROTAC treatment; conditions: IFNg (50 ng/ml) 24 hours, then IDO-PROTAC 24 hours
Method: (§1) FIG. 20. Discovery of lead IDO-PROTAC to induce IDO1 degradation in cancer cells. A. Schema for screening IDO-PROTAC compounds in U87 cells. […] Percent IFNg-induced IDO1 levels (normalized to untreated samples) were calculated in U87 cells after treating with IDO-PROTAC compounds at 0, 0.1, 1, and 10 uM concentration for 24 hours. C. […] IDO1 was induced in U87 and GBM43 cells with IFNg (50 ng/ml) for 24 hours followed by treatment with IDO-PROTAC for 24 hours before protein samples were prepared for western blotting analysis. D. Percent normalized IDO1 protein levels in U87 and GBM43 cells (from panel C) after treating with lead IDO-PROTAC (NU223612) for 24 hours. E & F. Testing moderate and poor IDO-PROTAC compounds on IDO1 protein levels in U87 cells. […] Structures of IDO-PROTAC (I), mutant IDO-PROTAC (J), and parental compound (K).

IDO1 [3] = target: T1, IDO1; assay: Western blot of IFNg-induced IDO1 protein levels in U87 cells after IDO-PROTAC treatment; conditions: IFNg (50 ng/ml) 24 hours, then IDO-PROTAC 24 hours
Method: FIG. 2. Screening method for PROTAC-induced degradation of IDO1 using INFg-treated U87 parental cells.
as §1
FIG. 27. Representative western blots to identify a lead IDO-PROTAC in U87 cells. IDO1 protein was induced in U87 cells with IFNg (50 ng/ml) for 24 hours followed by treatment with IDO-PROTAC at 0, 0.1, 1, and 10 uM for 24 hours before protein samples were prepared for western blotting analysis of IDO1 and GAPDH.

IDO1 [4] = target: T1, IDO1; assay: Enzyme-dependent (kynurenine production) and enzyme-independent (phospho-NFkB p65) functions of IDO1 in GBM cells; conditions: GBM cells (U87, GBM43)
Method: FIG. 24. […] A & B. Effect of IDO-PROTAC, mutant IDO-PROTAC, and IDO-inhibitor on kynurenine production in U87 & GBM43 cells respective cells. Cells were treated with IDO-PROTAC, mutant IDO-PROTAC, or IDO-inhibitor in the presence of INFg (50 ng/ml) for 24 hours and cell culture supernatants were collected to measure IFNg-induced kynurenine levels using a modified Erlich method. Cells cultured in the absence of IFNg serves as a control group. C. Western blotting analysis to determine the effect of IDO-PROTAC and IDO-inhibitor on IDO1 protein levels, phospho-NFkB (p65) levels, total-NFkB (p65) levels and GAPDH levels in U87 cells. IDO1 protein was induced with IFNg for 24 hours in U87 cells followed by treatment with IDO-PROTAC and IDO-inhibitor for 24 hours at multiple concentrations. D. Western blotting analysis to determine the effect of IDO-PROTAC, mutant IDO-PROTAC, and IDO-inhibitor on IDO1 protein levels, phospho-NFkB (p65) levels, total-NFkB (p65) levels and GAPDH levels in a breast cancer cell line, MDA MB 231. E. Western blotting analysis to determine the effect of IDO-PROTAC on the levels of IDO1 protein, phospho-NFkB (p65), total-NFkB (p65) and GAPDH in U87 IDO1 overexpressing (flag-tagged) cells. Cells were treated with DMSO or IDO-PROTAC (10 uM) for 24 hours prior to protein extraction. U87 parental cells serves as a control group for basal phosphorylation of NFkB. […]

T1 sequence (P14902 whole entry): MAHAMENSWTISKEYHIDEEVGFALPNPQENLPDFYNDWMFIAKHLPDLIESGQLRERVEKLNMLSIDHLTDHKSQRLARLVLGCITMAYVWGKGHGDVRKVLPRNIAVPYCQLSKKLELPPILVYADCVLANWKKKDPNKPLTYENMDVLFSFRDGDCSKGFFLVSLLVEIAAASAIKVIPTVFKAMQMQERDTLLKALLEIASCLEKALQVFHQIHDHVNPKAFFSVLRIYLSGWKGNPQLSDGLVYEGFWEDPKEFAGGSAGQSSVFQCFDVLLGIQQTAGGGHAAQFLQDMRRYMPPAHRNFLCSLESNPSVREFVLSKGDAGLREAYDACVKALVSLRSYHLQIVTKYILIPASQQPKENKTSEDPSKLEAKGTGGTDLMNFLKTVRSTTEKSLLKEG

CC(C)C[C@@H](C=O)NC(=O)[C@H](CC(C)C)NC(=O)[C@H](CC(C)C)NC(=O)OCc1ccccc1 [MG132] (Cbz-Leu-Leu-Leu-aldehyde)
Effect on NU223612 (IDO-PROTAC) induced IDO1 degradation (IDO1 [1]): blocks NU223612 induced IDO1 degradation; also recorded: blocks IDO-PROTAC-induced IDO1 degradation

NS(=O)(=O)OC[C@@H]1C[C@@H](n2ccc3c(N[C@H]4CCc5ccccc54)ncnc32)C[C@@H]1O [MLN4924]
Effect on NU223612 (IDO-PROTAC) induced IDO1 degradation (IDO1 [1]): blocks IDO-PROTAC-induced IDO1 degradation

C[C@@H](C(=O)Nc1ccc(OC2CCN(C(=O)CCOCCOCCNc3cccc4c3C(=O)N(C3CCC(=O)NC3=O)C4=O)CC2)cc1)[C@H]1CC[C@@H](c2ccnc3ccc(F)cc32)CC1 (stereo partly shown) [NU223612]
IDO1 degradation (western blot) (IDO1 [2]): induced IDO1 degradation | IDO1 degradation (western blot) (IDO1 [3]): induced IDO1 degradation | Effect on enzyme-dependent and enzyme-independent functions of IDO1 (IDO1 [4]): inhibits both enzyme-dependent and enzyme-independent functions of IDO1

Nc1cccc2c1C(=O)N(C1CCC(=O)NC1=O)C2=O (stereo not shown) [Pomalidomide]
Effect on NU223612 (IDO-PROTAC) induced IDO1 degradation (IDO1 [1]): blocks IDO-PROTAC-induced IDO1 degradation | Effect on NU223612 (IDO-PROTAC) induced IDO1 degradation (IDO1 [1]; listed as CRBN ligand): blocks NU223612 induced IDO1 degradation
